Test results: PMC5642494 (Oncotarget, 2017)
Like-named read-outs stand apart in the source and are kept apart here.

System: MCF7 cells
Assay: PI high content imaging of G1 arrest and cell proliferation, MCF7
Format: cell-based
Details: Homo sapiens
Procedure: Relative IC50/EC50 values were determined by curve fitting to a four parameter logistic equation: Y = bottom + ((top-bottom)/ (1+exp(HillSlope*(X – LnIC50)), where X is the natural log of dose/concentration, Y is response, decreasing as X increases, top and bottom are plateaus in the same units as Y, lnIC50 is the natural log of potency, in the same log units as X, and HillSlope measures the steepness of the curve. Data were plotted using GraphPad Prism. […]
Preclinical characterization of abemaciclib in hormone receptor […]
METHODS High content imaging cell-based assays for monitoring phosphorylation of Rb (ser780), G1 arrest and […]
ATP at 20°C by a secondary goat anti-mouse IgG-Alexa Fluor 488 in a 96-well plate filtration assay format. […] Plates were read in an kinase buffer containing 68 mM Hepes at pH 7.5, 6.67 mM Acumen Explorer eX3 (TTP Labtech). […] 10µL of CDK6/cyclin corresponding to 500-530 nm and the percentage of D3 enzyme complex (Millipore 14-519, #D13BP009NA) cells with pRb signal relative to the total PI stained (1 nM final concentration in the assay) was added onto subpopulation was calculated by the instrument’s software a mix of substrate and test compound. […]
(EDTA) was used to determine the level of background evaluated by measuring PI signal using high content 33P in the absence of enzyme activity. […]

IC50 (n = 2, read-out: IC50 2n (G1 arrest)): 54 ± 16 nM
IC50 (n = 2, read-out: IC50 Cell number): 369 ± 370 nM
SMILES: CCN1CCN(Cc2ccc(Nc3ncc(F)c(-c4cc(F)c5nc(C)n(C(C)C)c5c4)n3)nc2)CC1 [abemaciclib, Abemaciclib]
